Experimental data from PMC12284618 (Chemistry (Weinheim an Der Bergstrasse, Germany), 2025).
Structures can show the parent of a compound that is named as a salt. Where two headings read alike, the source gives them in different places.

What was measured:
[1] = target: T1, CI‐M6P/IGF2R:D1–D15 (Homo sapiens, UniProt P11717); assay: Competitive fluorescence polarization assay (displacement of fluorescent glycopeptide 1); format: binding; conditions: for Potency (relative binding potency): (IC50 of compound 2 / IC50 of compound) × 100
T1 construct: domains 1–15 (residues AA 41–2304); gp67 signal peptide (X1) (N, cleaved yes); 6‐His‐tag (C); PreScission protease cutting site (C); TwinStrep‐tag (C); made in house; host or cells: Spodoptera frugiperda Sf9 insect cells (baculovirus, pFastBac-1), secreted into the medium
Method: The recombinant bacmid DNA was purified using alkaline extraction and transfected using ExpiFectamine‐Sf (Thermo Fisher Scientific) into Spodoptera frugiperda 9 (Sf9) cells. The first generation of recombinant baculovirus was harvested after 5 days post‐transfection and amplified in subsequent shaking cultures of Sf9 in SF‐900 II serum‐free media (Thermo Fisher Scientific) at 27 °C and 130 rpm at a density of 2 × 10^6 cells/ml. Media containing viral particles were harvested after four days, and the amplification step was repeated to obtain high‐titer P2 stock, which was then used in large‐scale expression. […] The column was washed with a buffer containing 100 mM Tris‐HCl and 150 mM NaCl (pH 8.0), and the recombinant protein was eluted using the same buffer supplemented with 50 mM biotin. Expression of the recombinant protein was assessed by SDS‐PAGE and Western Blot analysis. Folding was checked by a competitive binding assay with radioactively labeled IGF2 (a natural ligand of IGF2R).^[ [25] ^]
(§1) We employed a fluorescence polarization (FP) binding assay to assess the binding affinity of the tested compounds for a soluble CI‐M6P/IGF2R ectodomain construct. This method monitors the rotational speed of a fluorescent probe—specifically, a fluorescein‐labeled glycopeptide 1. Upon binding to the CI‐M6P/IGF2R protein, the probe's rotation slows, resulting in increased fluorescence polarization. This shift is quantified as anisotropy (or polarization), which reflects the ratio of bound to free probe, enabling binding affinity estimation without phase separation.^[ [26] ^]
In all experiments, the compounds were dissolved in water and serially diluted with water in Echo Qualified 384‐Well PP Source Microplates using a BRAVO pipetting station (Agilent, USA). The compounds were then pre‐spotted onto black 384‐well low‐volume round‐bottom plates (Corning, USA) using an Echo 650 liquid handler (Beckman Coulter, USA) to obtain the desired final compound concentrations. Subsequently, 5 µL of the prepared mixture (soluble receptor and glycopeptide 1 in 100 mM Tris/HCl, 150 mM NaCl, pH 8.0) was added using either a MANTIS Liquid Dispenser (Formulatrix, Dubai, United Arab Emirates) or a Clicktip pipette (Thermo Fischer Scientific, USA). The plate was sealed with Duck Tape (Hampton Research USA) to prevent evaporation, shaken for 10 s at 800 rpm, centrifuged to remove bubbles, and then incubated at room temperature.
Next, competitive FP experiments were performed using a procedure analogous to previously reported methods.^[ [27] ^] […] Subsequently, 5 µL of a mixture containing CI‐M6P/IGF2R:D1–D15 (final concentration: 300 nM) and fluorescent glycopeptide 1 (final concentration: 10 nM) was added using a MANTIS Liquid Dispenser. The anisotropy data from the plate reader were plotted against the compound concentration using GraphPad Prism 8.0. A nonlinear regression analysis, “log [Inhibitor] versus response – Variable slope (four parameters),” was used to calculate the IC₅₀ values (the concentration at which half‐maximal inhibition is achieved) for each competition experiment. Relative binding affinities were calculated as (IC₅₀ of compound 2 / IC₅₀ of each compound) × 100 (%).

[2] = target: CI‐M6P/IGF2R; parameters: method as in PMID 3003148; conditions: monomeric M6P; cited from earlier work
[3] = target: T2, soluble CI‐M6P/IGF2R:D1–D15 (Homo sapiens, UniProt P11717); assay: Reverse saturation fluorescence polarization binding of fluorescent glycopeptide 1
T2 construct: domains 1–15 (residues AA 41–2304); gp67 signal peptide (X1) (N, cleaved yes); 6‐His‐tag (C); PreScission protease cutting site (C); TwinStrep‐tag (C); made in house; host or cells: Spodoptera frugiperda Sf9 insect cells (baculovirus, pFastBac-1), secreted into the medium
Source text: The gene encoding human CI‐M6P/IGF2R domains 1–15 (residues AA 41–2304) fused to an N‐terminal gp67 signal peptide ([…]) and C‐terminal 6‐His‐tag, PreScission protease cutting site, and TwinStrep‐tag in pFastBac‐1 vector was used for bacmid generation in DH10Bac E. coli (Thermo Fisher Scientific). The recombinant bacmid DNA was purified using alkaline extraction and transfected using ExpiFectamine‐Sf (Thermo Fisher Scientific) into Spodoptera frugiperda 9 (Sf9) cells. […] Expression of the recombinant protein was assessed by SDS‐PAGE and Western Blot analysis. […]
as §1, with “This method monitors the rotational speed of a fluorescent probe—specifically, a fluorescein‐labeled glycopeptide 1.” left out, “^] […]” for “^]”
We first analyzed the interaction between soluble CI‐M6P/IGF2R:D1–D15 and the fluorescent probe (glycopeptide 1) using a reverse saturation binding assay in solution. […]

[4] = receptor 300 nM, glycopeptide 1 10 nM, pH 8.0, mean of two independent measurements in triplicate ± S.D., read-out: IC50
[5] = receptor 300 nM, glycopeptide 1 10 nM, pH 8.0, mean of two independent measurements in triplicate ± S.D.

With O=P(O)(O)CC[C@H]1O[C@H](C/C=C/c2ccc(O)cc2)[C@@H](O)[C@@H](O)[C@@H]1O [Compound 13] the “fold increase in binding affinity compared to compound 8” value [1] was “almost threefold”, the “Potency (relative binding potency)” value [1] was 11.3% and the IC50 [1, 4] was 4200 ± 20 nM.

NCCCC[C@H](NC(=O)[C@H](Cc1cn(CCO[C@H]2O[C@H](CCP(=O)(O)O)[C@@H](O)[C@H](O)[C@@H]2O)nn1)NC(=O)[C@H](Cc1c[nH]c2ccccc12)NC(=O)[C@@H](N)Cc1cn(CCO[C@H]2O[C@H](CCP(=O)(O)O)[C@@H](O)[C@H](O)[C@@H]2O)nn1)C(=O)N[C@@H](Cc1cn(CCO[C@H]2O[C@H](CCP(=O)(O)O)[C@@H](O)[C@H](O)[C@@H]2O)nn1)C(N)=O [Compound 3] gave an IC50 [1] of 490 ± 40 nM.

In the case of CO[C@H]1O[C@H](CP(=O)(O)O)[C@@H](O)[C@H](O)[C@@H]1O [Compound 9], the “Potency (relative binding potency)” value [1] is reported as 0.35% and the IC50 [1, 4] is reported as 137000 ± 2000 nM.

Work on CC(=O)NCCCC[C@H](NC(=O)[C@H](Cc1cn(CCO[C@H]2O[C@H](CCP(=O)(O)O)[C@@H](O)[C@H](O)[C@@H]2O)nn1)NC(=O)[C@H](Cc1c[nH]c2ccccc12)NC(=O)[C@H](Cc1cn(CCO[C@H]2O[C@H](CCP(=O)(O)O)[C@@H](O)[C@H](O)[C@@H]2O)nn1)NC(C)=O)C(=O)N[C@@H](Cc1cn(CCO[C@H]2O[C@H](CCP(=O)(O)O)[C@@H](O)[C@H](O)[C@@H]2O)nn1)C(N)=O [Compound 4] yielded an IC50 [1] of 490 ± 70 nM.

In the case of NC(=O)[C@H](Cc1cn(CCO[C@H]2O[C@H](CCP(=O)(O)O)[C@@H](O)[C@H](O)[C@@H]2O)nn1)NC(=O)[C@H](Cc1c[nH]c2ccccc12)NC(=O)[C@@H](N)Cc1cn(CCO[C@H]2O[C@H](CCP(=O)(O)O)[C@@H](O)[C@H](O)[C@@H]2O)nn1 [Compound 5], the IC50 [1, 4] is reported as 480 ± 100 nM.

For mannose‐6‐phosphate [Compound 7], the Kd [2] is given as about 7000 nM.

In the case of CO[C@H]1O[C@H](CCC(=O)O)[C@@H](O)[C@H](O)[C@@H]1O [Compound 11], the “fold reduction in binding affinity compared to native M6P 7” value [1] is reported as “fivefold”, the “Potency (relative binding potency)” value [1] is reported as 0.85% and the IC50 [1, 4] is reported as 56000 ± 12000 nM.

For CO[C@H]1O[C@H](Cc2nnn[nH]2)[C@@H](O)[C@H](O)[C@@H]1O [Compound 12], the IC50 [1, 5] was “did not bind and unmeasurably low and n.b”.

For CC(=O)N[C@@H](Cc1cn(CCO[C@H]2O[C@H](CCP(=O)(O)O)[C@@H](O)[C@H](O)[C@@H]2O)nn1)C(=O)N[C@@H](Cc1c[nH]c2ccccc12)C(=O)N[C@@H](Cc1cn(CCO[C@H]2O[C@H](CCP(=O)(O)O)[C@@H](O)[C@H](O)[C@@H]2O)nn1)C(N)=O [Compound 6], the IC50 [1, 4] was 660 ± 900 nM.

In the case of CO[C@H]1O[C@H](CCc2nnn[nH]2)[C@@H](O)[C@H](O)[C@@H]1O [Compound 10], the IC50 [1, 5] is reported as “did not bind and unmeasurably low and n.b”.

With CO[C@H]1O[C@H](CCP(=O)(O)O)[C@@H](O)[C@H](O)[C@@H]1O [Compound 8, Methyl 6-deoxy-6-phosphonomethyl-α-D-mannopyranoside bis(triethylammonium) salt] the “Potency (relative binding potency)” value [1] was 4.1% and the IC50 ([1]; values used for comparison with calculations, read-out: experimental IC50 (as listed in Tables S1-S3)) was 11500 nM.

For NCCCC[C@H](NC(=O)[C@H](Cc1cn(CCO[C@H]2O[C@H](CCP(=O)(O)O)[C@@H](O)[C@H](O)[C@@H]2O)nn1)NC(=O)[C@H](CO)NC(=O)[C@H](Cc1cn(CCO[C@H]2O[C@H](CCP(=O)(O)O)[C@@H](O)[C@H](O)[C@@H]2O)nn1)NC(=O)[C@H](CCCCN)NC(=O)[C@H](Cc1cn(CCO[C@H]2O[C@H](CCP(=O)(O)O)[C@@H](O)[C@H](O)[C@@H]2O)nn1)NC(=O)[C@H](CO)NC(=O)[C@H](Cc1cn(CCO[C@H]2O[C@H](CCP(=O)(O)O)[C@@H](O)[C@H](O)[C@@H]2O)nn1)NC(=O)[C@H](CCCCN)NC(=O)[C@H](Cc1cn(CCO[C@H]2O[C@H](CCP(=O)(O)O)[C@@H](O)[C@H](O)[C@@H]2O)nn1)NC(=O)[C@H](CO)NC(=O)CNC(=O)c1ccc2c(c1)C(=O)OC21c2ccc(O)cc2Oc2cc(O)ccc21)C(N)=O [Compound 1], the Kd ([3]; glycopeptide 1 10 nM titrated with receptor 0-1500 nM, pH 8.0, read-out: dissociation constant (Kd)) was about 400 nM and the “cooperativity coefficient (n), Hill koef” value ([3]; specific binding with Hill slope, glycopeptide 1 10 nM) was −2.35.

With CC(=O)N[C@@H](Cc1c[nH]c2ccccc12)C(=O)N[C@@H](Cc1ccccc1)C(=O)NCC(=O)N[C@@H](CO)C(=O)N[C@@H](Cc1cn(CCO[C@H]2O[C@H](CCP(=O)(O)O)[C@@H](O)[C@H](O)[C@@H]2O)nn1)C(=O)N[C@@H](CCCCN)C(=O)N[C@@H](Cc1cn(CCO[C@H]2O[C@H](CCP(=O)(O)O)[C@@H](O)[C@H](O)[C@@H]2O)nn1)C(=O)N[C@@H](CO)C(=O)N[C@@H](Cc1cn(CCO[C@H]2O[C@H](CCP(=O)(O)O)[C@@H](O)[C@H](O)[C@@H]2O)nn1)C(=O)N[C@@H](CCCCN)C(=O)N[C@@H](Cc1cn(CCO[C@H]2O[C@H](CCP(=O)(O)O)[C@@H](O)[C@H](O)[C@@H]2O)nn1)C(=O)N[C@@H](CO)C(=O)N[C@@H](Cc1cn(CCO[C@H]2O[C@H](CCP(=O)(O)O)[C@@H](O)[C@H](O)[C@@H]2O)nn1)C(=O)N[C@@H](CCCCN)C(N)=O [Compound 2] the “Potency (relative binding potency)” value [1] was 100.0% and the IC50 [1, 4] was 480 ± 110 nM.
